Results as given in US20260091078A1, “OLIGOPEPTIDE THAT INHIBITS ANGIOGENESIS AND VASCULAR FUNCTION” (UNIVERSIDAD NACIONAL AUTONOMA DE MEXICO, priority 2019, published 2026).

Experiments:
[1] = system: immortalized bovine umbilical-vein endothelial cells (BUVEC E6E7); assay: Proliferation of BUVEC E6E7 endothelial cells stimulated with VEGF (EdU click assay); type: cell-based; settings: BUVEC E6E7, 50 ng ml^-1 VEGF, 24 hours, 0.001 to 100 nM; read-out: effective dose (EC50) for inhibition of proliferation
Method: On a 96-well plate treated for cell culture, BUVEC E6E7 and HUVEC cells were seeded at a density of ˜14,000 and ˜11,000 cells cm^−2, respectively. BUVEC E6E7 cells were maintained in F12K culture media with 10% (v/v) fetal bovine serum (FBS) and the HUVEC in F12K media supplemented with 20% of FBS, 100 μg ml^−1 heparin and 25 μg ml^−1 of endothelial cell growth supplement (ECGS). After 24 hours, the cells were starved with FBS-reduced media (0.1% of FBS for BUVEC E6E7 and 0.5% for HUVEC) for 16 hours to synchronize cells in phase GO of the reproductive cycle. After this time, FBS and heparin were replenished only to HUVEC. The cells were then treated with vasoinhibin or the oligopeptide THGRGFI in concentrations ranging from 0.001 to 100 nM for 24 hours in the presence of 10 μM of the thymidine analog 5-Ethynyl-2′-deoxyuridine (EdU) and 50 ng ml^−1 VEGF for the BUVEC E6E7 or the combination of 25 ng ml^−1 VEGF and 20 ng ml^−1 bFGF for HUVEC. At the end of the experiment, cells were fixed with 4% paraformaldehyde, permeabilized with 0.5% Triton X-100 in TBS1x, and stained to detect the newly synthetized DNA by the incorporation of EdU using the “click” assay (which involves a copper catalyzed reaction to covalently bind fluorescent azide to the EDU incorporated to DNA). Total DNA was counterstained with Hoechst 33342 and the “click”-stained nuclei were quantified and plotted relative to the total number of Hoechst 33342-stained nuclei.
For the assay, BUVEC E6E7 cells were seeded at a density of ˜14′000 cells cm^−2 in a 96 well plate with F12K with 10% (v/v) FBS. After 24 hours, cells were starved with 0.1% of FBS for GO synchronization for ˜16 hours. Next, the cells were treated with the different oligopeptides in presence of 10 μM of the thymidine analog EdU and 50 ng ml^−1 of VEGF. Finally, the cells were fixed, permeabilized, and stained for the newly synthetized DNA by the EdU incorporation through the ‘click’ assay. The total DNA was stained with Hoechst 33342 and the percentage of ‘click’-stained nuclei over the total nuclei was a measure of proliferation.

[2] = system: human endothelial cells from the umbilical-vein (HUVEC); assay: Formation of capillary structures by HUVEC on Matrigel; type: cell-based; settings: 100 nM, 6 hours
Method: For investigating whether the oligopeptide THGRGFI shares this property, a primary culture of human endothelial cells from the umbilical-vein (HUVEC) was maintained in F12K media supplemented with 20% FBS, 100 μg ml^−1 of heparin, and 25 μg ml^−1 endothelial cell growth supplement (ECGS). Cells from passages 2 to 4 were rinsed with tempered PBS1x and were detached from the plate with 0.25% trypsin-EDTA for ˜3 minutes and centrifuged to remove trypsin. The cells were counted using an hemocytometer and seeded at a density of 29,000 cells cm^−2 in 300 μl of F12K medium supplemented with 20% FBS and with heparin on a 24-well plate, over a layer of ˜9.7 μg μl^−1 Matrigel™ which was previously polymerized for 1 hour at 37° C. Cells were then treated with 100 nM vasoinhibin or the oligopeptide THGRGFI, and after 6 hours, micrographs were obtained in an inverted microscope. The images were analyzed to quantify main joining areas per field using the software “Angiogenesis Analyzer” [Gilles Carpentier. ImageJ contribution: Angiogenesis Analyzer. ImageJ News, 5 Oct. 2012.] and the ImageJ software.

[3] = system: endothelial cell (BUVEC E6E7) monolayer; assay: Vasopermeability in vitro: transit of Evans blue linked albumin across endothelial monolayer; type: cell-based, bovine; settings: 100 nM, 50 ng ml^-1 VEGF
Method: For evaluating if the oligopeptide THGRGFI conserves the inhibitory properties of vasoinhibin on vascular permeability, the transit of Evans blue linked albumin across an endothelial cell (BUVEC E6E7) monolayer was evaluated as follows:
BUVEC E6E7 cells were seeded over a transwell filter (pore of 0.4 μm) at a density of 10,000 cells cm^−2. After 3 days, the monolayers were starved with low serum (0.1 FBS) for 48 hours. Subsequently, 100 nM of the vasoinhibin or the oligopeptide of the present invention were added to the upper compartment (luminal part) of the transwell support, incubated for 1 hour, and followed by the addition of 50 ng ml^−1 of VEGF. Control (Ctl) was without VEGF, vasoinhibin and the oligopeptide. […] Samples of 50 μl of the abluminal compartment were collected and replaced by fresh PBS at 10, 20, 30 and 60 minutes. The absorbance (620 nm) was measured at all time points using a plate reader iMARK (BioRad). Absorbance values confirmed the transit of Evans blue labeled albumin across the endothelial monolayer.

[4] = system: VEGF-induced retinal vasopermeability; assay: Vasopermeability in vivo: VEGF-induced retinal albumin extravasation (Evans blue method); settings: Wistar rats, intravitreal, 20 μM with 300 ng VEGF, 24 hours
Method: For evaluating if the oligopeptide THGRGFI conserves the inhibitory properties of vasoinhibin on VEGF-induced vasopermeability in vivo, the effect of the intravitreal injection of VEGF alone or in combination with the oligopeptide or vasoinhibin in rats was determined.
Wistar rats were intravitreally injected with saline (control) or with 300 ng of VEGF in each case alone or in combination with 20 μM of the oligopeptide of the invention or with 20 μM of vasoinhibin. After 24 hours, the extravasation of albumin into the retina was evaluated using the Evans blue method. Briefly, 45 mg kg^−1 of total weight of the Evans blue dye was injected intravenously to anesthetized rats and was allowed to circulate for 2 hours. Then, the animals were perfused with ˜80 ml of PBS at a flow of ˜40 ml min^−1. The retinas were dissected, dried and incubated with 200 μl of formamide (Mallinckrodt Baker, Phillipsburg, NJ) at 72° C. and after 18 hours the labeled albumin was determined in the retinal extracts.

Ac-THGRGFI-NH2 [THGRGFI, Thr His Gly Arg Gly Phe Ile]
EC50 [1]: ~1 nM | effect on capillary structures (main joining areas per field) [2]: disrupted the capillary structures | inhibition of VEGF-induced endothelial permeability (Evans blue-albumin transit) [3]: inhibited the VEGF-induced increase in endothelial permeability | inhibition of VEGF-induced retinal vasopermeability [4]: blocks the VEGF increase in retinal vasopermeability
